These results are taken from PubChem BioAssay (NCI).

Test systems include 786-0 renal; A498 renal; A549 NSCLC; HCC-2998 colon; HCT-15 colon; IGROV1 ovarian; LOX IMVI melanoma; M14 melanoma; MCF7 breast; OVCAR-4 ovarian; OVCAR-5 ovarian; SF-539 CNS; T-47D breast; UACC-62 melanoma; UO-31 renal; CCRF-CEM leukemia; HL-60(TB) leukemia.
What all share (experiment): NCI tumour cell line growth inhibition, 48 h

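Exposure lasted 48 hours, with cells grown in 96-well plates and compounds tested at five concentrations. TGI denotes the concentration required for complete inhibition of growth.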

For `Nc1nc2c(c(=O)[nH]1)C(c1ccccc1)CC(=O)N2` (stereo unspecified), the TGI in the experiment on 786-0 renal, in the experiment on A498 renal, with A549 NSCLC, in the experiment with HCC-2998 colon, in the experiment on HCT-15 colon and in the experiment with IGROV1 ovarian was over 100 µM each time. The TGI with LOX IMVI melanoma, in the experiment with M14 melanoma, with MCF7 breast, in the experiment on OVCAR-4 ovarian, in the experiment with OVCAR-5 ovarian and in the experiment with SF-539 CNS was over 100 µM each time. Also, the TGI with T-47D breast, in the experiment on UACC-62 melanoma and with UO-31 renal was over 100 µM throughout.
As for `C=CC1CCC[N+]1(CC(=O)OCC)Cc1ccccc1` (stereo unspecified), the TGI with 786-0 renal, with A498 renal, in the experiment on A549 NSCLC, in the experiment on CCRF-CEM leukemia, in the experiment on HCC-2998 colon and in the experiment on HCT-15 colon was over 100 µM in each case. Also, the TGI in the experiment on HL-60(TB) leukemia, in the experiment with IGROV1 ovarian, with M14 melanoma, in the experiment with MCF7 breast, with OVCAR-4 ovarian and in the experiment on OVCAR-5 ovarian was over 100 µM each time. For the same compound, the TGI in the experiment with T-47D breast, in the experiment on UACC-62 melanoma and in the experiment with UO-31 renal was over 100 µM in each case.
On to `CN1C/C(=C\c2cccs2)C2=NN(C)C(c3cccs3)C2C1` (stereo unspecified), for which the TGI in the experiment on 786-0 renal, in the experiment with A498 renal, in the experiment with A549 NSCLC, in the experiment with CCRF-CEM leukemia, in the experiment with HCC-2998 colon and with HCT-15 colon was over 100 µM throughout. Besides, the TGI with HL-60(TB) leukemia was 43.6 µM; in the experiment with IGROV1 ovarian, over 100 µM; in the experiment on LOX IMVI melanoma it was over 100 µM; in the experiment with M14 melanoma, over 100 µM; in the experiment with MCF7 breast, over 100 µM; in the experiment on OVCAR-4 ovarian, over 100 µM. In addition, the TGI in the experiment on OVCAR-5 ovarian, in the experiment with T-47D breast, with UACC-62 melanoma and in the experiment on UO-31 renal was over 100 µM throughout.
For the compound `O=c1[nH]/c(=C/c2ccc(OCc3ccccc3)cn2)c(=O)[nH]/c1=C/c1ccc(F)cc1`, the TGI is 30 µM with 786-0 renal; over 100 µM with A498 renal; over 50 µM in the experiment with A549 NSCLC; over 44.7 µM in the experiment with CCRF-CEM leukemia; over 40.3 µM with HCC-2998 colon; over 42.6 µM with HCT-15 colon. Moreover, the TGI in the experiment with IGROV1 ovarian was 13.1 µM; in the experiment on LOX IMVI melanoma it was over 100 µM; with M14 melanoma it was over 32.1 µM; in the experiment on MCF7 breast, over 100 µM; in the experiment with OVCAR-4 ovarian it was over 82.1 µM; in the experiment on OVCAR-5 ovarian it was over 100 µM. The TGI is 19.3 µM in the experiment on SF-539 CNS, over 55.6 µM in the experiment with T-47D breast, over 50.2 µM with UACC-62 melanoma and over 60.1 µM in the experiment with UO-31 renal.
Regarding `CC(O)c1cc2c(s1)C(=O)c1ccsc1C2=O` (stereo unspecified), the TGI was 2.83 µM in the experiment with 786-0 renal; 2.95 µM in the experiment on A498 renal; 0.373 µM in the experiment on A549 NSCLC; 0.781 µM with CCRF-CEM leukemia; 0.576 µM in the experiment on HCC-2998 colon; 0.118 µM with HCT-15 colon. In addition, the TGI with HL-60(TB) leukemia was found to be 0.0791 µM; in the experiment on IGROV1 ovarian, 1.25 µM; in the experiment with M14 melanoma, 0.241 µM; with MCF7 breast, 0.32 µM; with OVCAR-4 ovarian it was 0.533 µM; with OVCAR-5 ovarian it was 0.3 µM. The TGI with SF-539 CNS turned out to be 0.158 µM; with T-47D breast it was 1.42 µM; with UACC-62 melanoma, 0.0733 µM; in the experiment on UO-31 renal it was 0.413 µM.
Turning to `O=C1CCCCCCCCCCC1CCCCCBr` (stereo unspecified), the TGI is 86 µM in the experiment on 786-0 renal; 28.2 µM in the experiment with A498 renal; over 100 µM with A549 NSCLC; 35 µM with CCRF-CEM leukemia; 38.6 µM with HCC-2998 colon; 56.8 µM with HCT-15 colon. For the same compound, the TGI in the experiment with IGROV1 ovarian came to 56.2 µM; in the experiment on LOX IMVI melanoma, 37.8 µM; in the experiment on M14 melanoma it was 83.6 µM; with MCF7 breast, 63.3 µM; in the experiment with OVCAR-4 ovarian, 67.2 µM; in the experiment with OVCAR-5 ovarian, 67.1 µM. The TGI in the experiment with SF-539 CNS is 59.1 µM; in the experiment with T-47D breast it was 73.9 µM; in the experiment on UACC-62 melanoma, over 100 µM; in the experiment on UO-31 renal it was 65.9 µM.
In the case of `CO[C@@H]1C[C@H]2[C@@H]3CC[C@H]([C@@H](C)CO)[C@@]3(C)CC[C@@H]2[C@@]2(C)CC[C@H]3C[C@]312`, the TGI in the experiment with 786-0 renal, in the experiment with A498 renal, in the experiment with A549 NSCLC, in the experiment with CCRF-CEM leukemia, in the experiment with HCC-2998 colon and in the experiment with HCT-15 colon was over 100 µM in each case. The TGI in the experiment on HL-60(TB) leukemia was 76.3 µM; with IGROV1 ovarian it was over 100 µM; with LOX IMVI melanoma, 34.6 µM; in the experiment with M14 melanoma, 69.8 µM; in the experiment with MCF7 breast, 31.8 µM; in the experiment on OVCAR-4 ovarian it was over 100 µM. The TGI in the experiment with OVCAR-5 ovarian is over 100 µM; with SF-539 CNS it was over 100 µM; with T-47D breast, over 100 µM; in the experiment with UO-31 renal, 98.8 µM.
Turning to `COc1cc(C2SCC(=O)N2c2ccc(-n3c(-c4ccccc4)nc4ccccc4c3=O)cc2)cc(OC)c1OC` (stereo unspecified), the TGI with 786-0 renal, in the experiment on A498 renal, with A549 NSCLC, with CCRF-CEM leukemia, in the experiment on HCC-2998 colon and in the experiment with HCT-15 colon was over 100 µM throughout. The TGI with HL-60(TB) leukemia, in the experiment on IGROV1 ovarian, in the experiment with LOX IMVI melanoma, with MCF7 breast, with OVCAR-4 ovarian and in the experiment with OVCAR-5 ovarian was over 100 µM each time. The TGI in the experiment with SF-539 CNS is over 100 µM; in the experiment on T-47D breast, over 100 µM; in the experiment on UACC-62 melanoma, over 100 µM; with UO-31 renal, 71.4 µM.
